Each structure is given as a SMILES string. pIC50: −log10 of the molar value. Where only a bound is given, the exact number is not on record here.

The test system of one assay is 1A9. The assay is described as follows: Cytotoxicity against ovarian cancer cell line (1A-9) of humans was determined. The class given is functional, cell-based. The conditions noted are these: Homo sapiens.
Assay [1] relates to KB. The assay is described as follows: The compound was tested for its cytotoxic concentration required to inhibit the replication of human tumor nasopharynx (KB) cell lines. The class given is functional, cell-based.
Assay [2] concerns KB. The assay is described as follows: The compound was tested for its cytotoxic concentration required to inhibit the replication of human tumor nasopharynx (KB-VIN) cell lines which is drug resistant. The class given is functional, cell-based.
Assay [3] deals with A9. The assay is described as follows: Cytotoxicity against Beta- tubulin mutant expressing […] cell line of humans was tested. The class given is functional, cell-based. The conditions noted are these: Homo sapiens.
Assay [4] concerns A9. The assay is described as follows: Percentage inhibition at higher concentration (100 nM) against Beta- tubulin mutant expressing […] cell line. The class given is functional, Homo sapiens.

Turning to `COc1cc2c(c(OC)c1OC)-c1ccc(OC)c(=O)cc1[C@@H](NC(C)=O)CC2` [COLCHICINE], the pIC50 – broadly, the negative decadic logarithm of the IC50, by convention in mol/L – in the assay with 1A9 was 7.92; in the assay on KB [1], 7.92; in the assay on KB [2] it was less than 7.00; with A9 [3], 7.86.

Regarding `COc1ccc2c(c1)[C@@H]1O[C@@H]1Cc1cc(OC)c(OC)c(OC)c1-2`, the pIC50 with 1A9 was 7.09; in the assay on KB [1] it was 7.21; in the assay with KB [2], 7.21; with A9 [3], less than 7.00. Testing at 0.1 µM in the assay on A9 [4] gave an inhibition of 17%.

`COc1ccc2c(c1)C=CCc1cc(OC)c(OC)c(OC)c1-2`: the pIC50 in the assay on 1A9 was 7.22; in the assay on KB [1], 7.22; in the assay with KB [2] it was 7.17; with A9 [3], 7.11.

As for `COc1ccc2c(c1)[C@@H](NC(=O)CCl)CCc1cc(OC)c(OC)c(OC)c1-2`, the negative logarithm of the IC50 (pIC50) with 1A9 was 8.57; in the assay with KB [1], 7.92; in the assay on KB [2], 8.04; with A9 [3], 7.86.

For the origin of these results see ChEMBL document CHEMBL1135863, “Antitumor agents. Part 215: antitubulin effects of cytotoxic B-ring modified allocolchicinoids” (Bioorg Med Chem Lett, 2002).
